Laboratory results published in ChEMBL document CHEMBL1201862, “PubChem BioAssay data set” (2004).
Active and inactive are the calls of the source.

Experiments:
HeLa = assay: HeLa cell cytotoxicity, dose response, cytotoxicity control, 24 h, cherry-picked samples (AID 504726); type: functional, cell-based; conditions: Homo sapiens;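 note: potency for cytotoxicity as loss of luminescence signal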
[1] = target: T1, Zinc finger protein mex-5 (Caenorhabditis elegans, UniProt Q9XUB2); assay: MEX-5/TCR-2 RNA interaction inhibitors, dose response, biochemical, C. elegans, fluorescence polarization (AID 1960)
T1 sequence (Q9XUB2 whole entry): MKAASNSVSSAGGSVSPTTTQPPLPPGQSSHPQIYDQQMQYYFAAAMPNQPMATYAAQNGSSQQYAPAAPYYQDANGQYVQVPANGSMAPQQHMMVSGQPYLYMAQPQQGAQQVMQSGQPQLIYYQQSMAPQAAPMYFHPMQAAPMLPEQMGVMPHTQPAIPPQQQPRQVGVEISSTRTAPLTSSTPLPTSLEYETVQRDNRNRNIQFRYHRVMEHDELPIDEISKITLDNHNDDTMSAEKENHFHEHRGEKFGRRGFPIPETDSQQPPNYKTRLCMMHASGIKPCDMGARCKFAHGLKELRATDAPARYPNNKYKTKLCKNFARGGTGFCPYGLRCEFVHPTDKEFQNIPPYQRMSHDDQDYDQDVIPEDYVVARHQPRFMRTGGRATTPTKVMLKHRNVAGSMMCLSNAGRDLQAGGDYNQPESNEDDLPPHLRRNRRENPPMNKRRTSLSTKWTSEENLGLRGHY

[2] = target: T2, RNA-binding protein pos-1 (Caenorhabditis elegans, UniProt G5EF15); assay: inhibitors of POS-1/mex-3 RNA binding, dose response, biochemical, fluorescence polarization (AID 1964);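 note: purified POS-1 fused to maltose binding protein made in E. coli; potency of compounds blocking POS-1 binding to fluorescent RNA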
T2 sequence (G5EF15 whole entry): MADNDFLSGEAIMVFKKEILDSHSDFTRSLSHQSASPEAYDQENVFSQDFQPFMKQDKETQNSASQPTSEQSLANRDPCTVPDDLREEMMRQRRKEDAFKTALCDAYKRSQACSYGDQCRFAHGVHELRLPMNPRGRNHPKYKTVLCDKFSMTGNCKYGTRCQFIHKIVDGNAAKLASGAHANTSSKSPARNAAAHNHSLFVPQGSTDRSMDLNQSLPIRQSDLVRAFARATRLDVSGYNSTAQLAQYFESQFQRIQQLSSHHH

ORF 73 = target: T3, ORF 73 (Human herpesvirus 8, UniProt O40947); assay: inhibitors of C-LANA binding to LBS DNA, dose response, biochemical, fluorescence polarization, cherry-picked samples (AID 504725); set-up: species or system Human gammaherpesvirus 8;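 note: fluorescence polarization of a labeled DNA duplex reporting LANA DNA binding; potency is for inhibitors that block LANA binding to the DNA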
T3 sequence (O40947 whole entry): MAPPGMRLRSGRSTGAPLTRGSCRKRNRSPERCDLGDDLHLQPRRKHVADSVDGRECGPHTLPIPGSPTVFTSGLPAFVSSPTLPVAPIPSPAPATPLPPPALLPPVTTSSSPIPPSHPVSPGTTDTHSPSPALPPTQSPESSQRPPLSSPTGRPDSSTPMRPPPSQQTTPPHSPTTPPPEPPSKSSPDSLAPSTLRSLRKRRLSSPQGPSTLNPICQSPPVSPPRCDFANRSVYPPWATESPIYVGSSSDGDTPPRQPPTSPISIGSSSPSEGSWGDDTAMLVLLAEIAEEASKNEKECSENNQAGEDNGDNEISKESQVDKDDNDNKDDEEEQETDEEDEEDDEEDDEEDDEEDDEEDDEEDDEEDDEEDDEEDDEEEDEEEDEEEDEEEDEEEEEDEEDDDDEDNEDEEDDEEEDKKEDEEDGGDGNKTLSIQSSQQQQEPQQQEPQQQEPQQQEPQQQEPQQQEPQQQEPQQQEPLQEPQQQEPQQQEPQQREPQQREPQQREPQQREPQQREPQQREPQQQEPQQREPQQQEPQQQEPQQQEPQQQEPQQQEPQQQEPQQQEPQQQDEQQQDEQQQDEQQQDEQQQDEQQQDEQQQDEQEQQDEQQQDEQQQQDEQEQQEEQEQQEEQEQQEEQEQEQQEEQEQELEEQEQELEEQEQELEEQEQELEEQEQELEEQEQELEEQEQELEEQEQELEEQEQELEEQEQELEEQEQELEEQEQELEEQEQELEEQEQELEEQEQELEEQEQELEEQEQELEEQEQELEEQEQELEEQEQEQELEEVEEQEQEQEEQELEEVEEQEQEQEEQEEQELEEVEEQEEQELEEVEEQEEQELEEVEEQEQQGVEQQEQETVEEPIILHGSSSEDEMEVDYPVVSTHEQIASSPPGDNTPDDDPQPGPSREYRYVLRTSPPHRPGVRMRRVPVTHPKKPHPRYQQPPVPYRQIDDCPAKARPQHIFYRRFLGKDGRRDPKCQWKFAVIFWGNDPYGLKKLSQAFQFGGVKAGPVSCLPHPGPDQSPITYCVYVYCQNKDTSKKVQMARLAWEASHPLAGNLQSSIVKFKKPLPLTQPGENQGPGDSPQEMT

fMet-Leu-Phe receptor = target: T4, fMet-Leu-Phe receptor (Homo sapiens, UniProt P21462); assay: FPR ligands, dose response (AID 519); type: functional
T4 sequence (P21462 whole entry): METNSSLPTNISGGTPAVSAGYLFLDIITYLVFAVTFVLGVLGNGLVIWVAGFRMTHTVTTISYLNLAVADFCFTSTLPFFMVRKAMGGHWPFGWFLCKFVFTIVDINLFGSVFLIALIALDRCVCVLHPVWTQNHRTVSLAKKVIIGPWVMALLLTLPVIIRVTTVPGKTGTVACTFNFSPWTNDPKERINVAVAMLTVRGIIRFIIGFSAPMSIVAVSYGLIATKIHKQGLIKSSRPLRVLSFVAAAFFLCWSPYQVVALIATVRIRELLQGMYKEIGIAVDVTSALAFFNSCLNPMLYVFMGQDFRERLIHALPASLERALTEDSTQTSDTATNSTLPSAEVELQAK

[3] = cytotoxicity in HEK-293T cells, dose response, cytotoxicity control for BCR NF-kB inhibitor project, luminescence, B-cell screen hits (AID 489021); type: functional, cell-based;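 note: HEK-293T cells carrying an NF-kB luciferase reporter; cells exposed to compound for about 14 hours before viability readout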
[4] = target: Peroxisome proliferator-activated receptor gamma/Nuclear receptor coactivator 2 (Homo sapiens, UniProt P37231); assay: (§1) TR-FRET dose response biochemical High Throughput Screening assay for agonists of the steroid receptor coactivator 2 (SRC-2) recruitment by the peroxisome proliferator-activated receptor gamma (PPAR gamma): non-selective agonists. [Related pubchem assays: 1297, 1032 ]; type: functional
[5] = target: Peroxisome proliferator-activated receptor gamma/Nuclear receptor coactivator 1 (Homo sapiens, UniProt P37231); assay: as §1, with “1 (SRC-1)” for “2 (SRC-2)”, “assays (depositor defined):AID1300, AID1808, AID504735, AID631]” for “assays: 1297, 1032 ]”; type: protein assay
Peroxisome proliferator-activated receptor gamma/Nuclear receptor coactivator 1, sequence (P37231 whole entry): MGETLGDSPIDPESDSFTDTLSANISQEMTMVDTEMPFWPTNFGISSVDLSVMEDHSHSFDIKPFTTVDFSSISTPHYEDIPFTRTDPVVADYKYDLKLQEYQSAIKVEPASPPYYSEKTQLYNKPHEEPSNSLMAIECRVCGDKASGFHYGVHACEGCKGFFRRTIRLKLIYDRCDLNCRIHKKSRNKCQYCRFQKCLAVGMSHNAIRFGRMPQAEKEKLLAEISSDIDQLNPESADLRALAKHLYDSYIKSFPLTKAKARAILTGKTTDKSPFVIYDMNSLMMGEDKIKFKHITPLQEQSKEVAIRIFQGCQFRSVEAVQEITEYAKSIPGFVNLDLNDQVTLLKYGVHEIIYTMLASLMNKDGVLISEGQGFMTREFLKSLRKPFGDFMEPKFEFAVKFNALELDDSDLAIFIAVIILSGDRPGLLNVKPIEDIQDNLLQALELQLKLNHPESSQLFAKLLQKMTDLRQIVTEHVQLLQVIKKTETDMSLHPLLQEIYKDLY
Peroxisome proliferator-activated receptor gamma/Nuclear receptor coactivator 1, sequence (Q15788 whole entry, further chain): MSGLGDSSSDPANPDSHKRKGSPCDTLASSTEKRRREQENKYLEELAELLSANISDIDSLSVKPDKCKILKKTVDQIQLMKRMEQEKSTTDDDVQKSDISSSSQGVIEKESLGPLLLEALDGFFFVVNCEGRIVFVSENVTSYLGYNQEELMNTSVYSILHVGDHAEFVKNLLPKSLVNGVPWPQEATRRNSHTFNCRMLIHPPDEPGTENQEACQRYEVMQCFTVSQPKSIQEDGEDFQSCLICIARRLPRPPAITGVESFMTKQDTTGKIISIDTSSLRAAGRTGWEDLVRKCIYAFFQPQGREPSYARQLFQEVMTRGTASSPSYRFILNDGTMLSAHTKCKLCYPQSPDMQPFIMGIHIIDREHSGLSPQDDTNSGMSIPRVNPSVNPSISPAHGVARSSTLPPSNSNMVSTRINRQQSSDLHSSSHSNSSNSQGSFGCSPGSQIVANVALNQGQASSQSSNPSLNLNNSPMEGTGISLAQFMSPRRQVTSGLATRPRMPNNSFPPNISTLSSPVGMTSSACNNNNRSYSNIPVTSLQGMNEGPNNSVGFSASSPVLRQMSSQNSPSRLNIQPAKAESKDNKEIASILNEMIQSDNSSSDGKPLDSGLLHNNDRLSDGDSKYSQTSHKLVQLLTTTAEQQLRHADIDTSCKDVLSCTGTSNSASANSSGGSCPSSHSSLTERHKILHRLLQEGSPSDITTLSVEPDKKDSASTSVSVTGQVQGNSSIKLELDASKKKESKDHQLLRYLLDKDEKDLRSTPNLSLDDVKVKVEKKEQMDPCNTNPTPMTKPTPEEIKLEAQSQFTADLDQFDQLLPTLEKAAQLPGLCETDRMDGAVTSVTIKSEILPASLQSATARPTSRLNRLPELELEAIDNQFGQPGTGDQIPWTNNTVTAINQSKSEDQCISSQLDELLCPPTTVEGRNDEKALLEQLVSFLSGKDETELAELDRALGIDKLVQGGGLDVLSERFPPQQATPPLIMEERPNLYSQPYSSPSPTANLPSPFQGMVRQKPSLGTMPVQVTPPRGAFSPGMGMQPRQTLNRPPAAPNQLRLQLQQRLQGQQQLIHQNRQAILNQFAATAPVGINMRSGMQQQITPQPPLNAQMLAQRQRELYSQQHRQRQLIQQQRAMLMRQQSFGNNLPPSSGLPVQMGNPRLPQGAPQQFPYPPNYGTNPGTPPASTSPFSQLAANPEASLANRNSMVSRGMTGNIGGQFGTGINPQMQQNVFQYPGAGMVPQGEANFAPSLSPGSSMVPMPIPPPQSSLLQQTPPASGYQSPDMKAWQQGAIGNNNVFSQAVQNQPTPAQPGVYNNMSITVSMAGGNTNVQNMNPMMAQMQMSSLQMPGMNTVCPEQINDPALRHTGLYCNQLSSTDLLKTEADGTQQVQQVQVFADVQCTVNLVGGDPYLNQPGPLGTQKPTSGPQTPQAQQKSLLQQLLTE

[6] = target: Peroxisome proliferator-activated receptor gamma/Nuclear receptor coactivator 3 (Homo sapiens, UniProt P37231); assay: as §1, with “3 (SRC-3)” for “2 (SRC-2)”, “1301 (Confirmation screen.), 1048 (Primary screen.)]” for “1297, 1032 ]”; type: functional
Peroxisome proliferator-activated receptor gamma/Nuclear receptor coactivator 3, sequence (P37231 whole entry): as the sequence (P37231 whole entry) above
Peroxisome proliferator-activated receptor gamma/Nuclear receptor coactivator 3, sequence (Q9Y6Q9 whole entry, further chain): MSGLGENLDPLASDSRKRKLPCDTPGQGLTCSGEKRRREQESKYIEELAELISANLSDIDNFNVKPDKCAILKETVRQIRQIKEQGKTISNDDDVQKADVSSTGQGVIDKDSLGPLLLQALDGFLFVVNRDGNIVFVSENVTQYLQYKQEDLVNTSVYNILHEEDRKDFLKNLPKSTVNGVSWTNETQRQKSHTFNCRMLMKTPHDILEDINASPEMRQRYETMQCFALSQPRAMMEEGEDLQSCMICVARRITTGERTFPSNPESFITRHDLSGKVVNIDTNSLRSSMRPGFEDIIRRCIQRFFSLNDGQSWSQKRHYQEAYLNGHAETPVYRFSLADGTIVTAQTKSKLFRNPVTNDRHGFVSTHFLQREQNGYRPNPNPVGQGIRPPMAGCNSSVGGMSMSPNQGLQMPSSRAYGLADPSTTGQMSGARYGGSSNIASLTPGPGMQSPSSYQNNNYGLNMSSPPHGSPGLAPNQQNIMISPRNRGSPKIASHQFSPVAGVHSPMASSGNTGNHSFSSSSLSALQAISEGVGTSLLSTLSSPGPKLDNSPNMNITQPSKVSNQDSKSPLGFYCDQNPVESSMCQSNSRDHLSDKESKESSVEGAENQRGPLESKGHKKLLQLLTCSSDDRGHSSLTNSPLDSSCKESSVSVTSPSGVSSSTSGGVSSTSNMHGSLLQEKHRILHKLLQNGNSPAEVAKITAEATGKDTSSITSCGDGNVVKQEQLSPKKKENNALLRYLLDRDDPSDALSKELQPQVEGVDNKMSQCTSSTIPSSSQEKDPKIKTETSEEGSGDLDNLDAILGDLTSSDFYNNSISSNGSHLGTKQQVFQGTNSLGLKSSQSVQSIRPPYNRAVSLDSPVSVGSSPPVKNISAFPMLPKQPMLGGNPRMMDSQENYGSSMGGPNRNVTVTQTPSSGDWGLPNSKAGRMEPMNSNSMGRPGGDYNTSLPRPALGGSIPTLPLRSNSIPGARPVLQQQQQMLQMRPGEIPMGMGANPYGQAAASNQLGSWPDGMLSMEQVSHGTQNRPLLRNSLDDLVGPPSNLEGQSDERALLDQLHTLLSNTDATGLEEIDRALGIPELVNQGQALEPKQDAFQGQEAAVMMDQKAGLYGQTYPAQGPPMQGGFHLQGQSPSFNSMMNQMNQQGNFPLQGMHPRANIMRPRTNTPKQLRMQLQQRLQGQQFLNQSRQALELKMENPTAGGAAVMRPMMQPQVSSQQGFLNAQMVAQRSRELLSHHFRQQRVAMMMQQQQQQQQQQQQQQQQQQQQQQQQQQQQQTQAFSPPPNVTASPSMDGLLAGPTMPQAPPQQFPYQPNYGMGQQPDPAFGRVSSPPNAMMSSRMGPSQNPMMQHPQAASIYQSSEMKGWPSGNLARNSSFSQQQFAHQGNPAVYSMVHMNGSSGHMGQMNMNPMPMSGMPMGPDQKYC

[7] = target: Eukaryotic translation initiation factor 4E (Mus musculus, UniProt P63073); assay: eIF4E–eIF4G protein interaction inhibitors, dose response, biochemical, TR-FRET (AID 855); type: functional;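 note: potency for disrupting eIF4E binding to eIF4GI seen as loss of FRET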
Eukaryotic translation initiation factor 4E, sequence (P63073 whole entry, the tested form may be a part): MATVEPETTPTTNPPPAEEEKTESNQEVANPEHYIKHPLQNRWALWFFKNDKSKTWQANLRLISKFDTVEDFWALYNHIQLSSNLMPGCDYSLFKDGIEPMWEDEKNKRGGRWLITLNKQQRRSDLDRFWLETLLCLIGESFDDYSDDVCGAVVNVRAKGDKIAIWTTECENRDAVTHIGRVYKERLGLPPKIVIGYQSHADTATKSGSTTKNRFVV

[8] = target: T5, Carboxy-terminal domain RNA polymerase II polypeptide A small phosphatase 1 (Homo sapiens, UniProt Q9GZU7); assay: inhibitors of CTDSP1, concentration-response testing, biochemical assay, absorbance-based, actives from ultra-high-throughput screening (AID 540297); type: functional
T5 sequence (Q9GZU7 whole entry): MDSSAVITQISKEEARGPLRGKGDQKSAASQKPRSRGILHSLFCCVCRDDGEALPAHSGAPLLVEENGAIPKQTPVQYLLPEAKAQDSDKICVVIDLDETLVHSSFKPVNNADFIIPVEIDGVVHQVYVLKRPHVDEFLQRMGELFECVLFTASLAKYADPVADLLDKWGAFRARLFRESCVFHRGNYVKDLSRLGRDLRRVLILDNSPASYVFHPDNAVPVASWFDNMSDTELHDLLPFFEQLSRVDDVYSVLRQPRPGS

Question: For `COc1ccc(C2C(C(=O)c3cccs3)=C(O)C(=O)N2c2nnc(C)s2)cc1OC` (centres undefined), which AC50 (HeLa) is on record?
Answer: > 350 µM (inactive)

Question: What about the EC50 [1] of the same compound?
Answer: 5.19 µM (active)

Question: And the EC50 [2]?
Answer: 7.2 µM (active)

Question: And the AC50 (ORF 73)?
Answer: 17.5 µM (active)

Question: And the Ki (fMet-Leu-Phe receptor)?
Answer: > 66.7 µM (inactive)

Question: With `CCOC(=O)N1CCN(CC(=O)Nc2ccc([N+](=O)[O-])cc2C(=O)Nc2ccccc2F)CC1` as the compound, how does the IC50 [3] read?
Answer: 51.6 µM (inactive)

Question: With `CCn1c(=O)cc(SCC(=O)N2CCN(C(=O)c3ccco3)CC2)c2ccccc21` as the compound, how does the IC50 [3] read?
Answer: > 80 µM (inactive)

Question: What about the EC50 [4] of the same compound?
Answer: > 79.4 µM (not active)

Question: And the EC50 [5]?
Answer: > 79.4 µM (inactive)

Question: What about the EC50 [6] of the same compound?
Answer: > 79.4 µM (not active)

Question: With `COc1ccc(-c2noc(N3CCC(C(=O)Nc4cccc(OC)c4)CC3)n2)cc1` as the compound, how does the IC50 [3] read?
Answer: > 80 µM (inactive)

Question: With `COc1ccc(-c2ccc(N(C)C)cc2)cc1[C@H]1[C@H]2C=CC[C@@H](C)[C@@H]2C(=O)N1Cc1ccccc1` as the compound, how does the IC50 [3] read?
Answer: > 80 µM (inactive)

Question: With `COc1ccc(OC)c(NC(=O)COC(=O)c2cc3c(s2)CCC3)c1` as the compound, how does the IC50 [7] read?
Answer: 50 µM (inactive)

Question: And the IC50 [8]?
Answer: 2.39 µM (active)
